Results reported in ChEMBL document CHEMBL3132751, “Crafting precise multivalent architectures” (Medchemcomm, 2013).

Biological target: T1, CD209 antigen (Homo sapiens, UniProt Q9NNX6)
T1 sequence (Q9NNX6 whole entry): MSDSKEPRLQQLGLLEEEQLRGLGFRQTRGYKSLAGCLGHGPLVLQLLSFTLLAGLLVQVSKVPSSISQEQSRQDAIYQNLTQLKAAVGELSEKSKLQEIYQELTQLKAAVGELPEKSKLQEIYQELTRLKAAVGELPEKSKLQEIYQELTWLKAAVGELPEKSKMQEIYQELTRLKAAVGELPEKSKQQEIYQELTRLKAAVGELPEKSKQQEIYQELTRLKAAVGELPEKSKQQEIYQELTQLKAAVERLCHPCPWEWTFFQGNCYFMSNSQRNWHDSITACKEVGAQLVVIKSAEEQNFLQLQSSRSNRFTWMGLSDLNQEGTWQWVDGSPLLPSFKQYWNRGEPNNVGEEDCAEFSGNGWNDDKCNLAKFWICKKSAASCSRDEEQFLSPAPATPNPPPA
Test: Binding affinity to DC-SIGN (unknown origin)

Structure (SMILES)	Kd [mM]
CC(=O)N[C@H](C=O)[C@@H](O)[C@H](O)[C@H](O)CO	8.7
C[C@H](O)[C@@H](O)[C@@H](O)[C@H](O)C=O [L-FUCOSE]	6.7
